# Patent US20100113776A1, “PYRAZOLE DERIVATIVE” (TAISHO PHARMACEUTICAL CO.,LTD., priority 2006, published 2010)
# Columns and labels:
# human H3 receptor [1] = molecular target: T1, human H3 receptor (Homo sapiens, UniProt Q9Y5N1); assay: H3 receptor binding test; details: membrane preparation of human H3 receptor-expressing CHO-K1 cells; 2 nM R(−)-α-methyl[3H]histamine; room temperature, 1 hour
# T1 construct: purchased Euroscreen ES-392-M; host or cells: CHO-K1 cells (recombinant expression)
# Protocol: A membrane preparation of human H3 receptor-expressing CHO—K1 cells (Euroscreen, ES-392-M, 15 μg protein/200 μl), R(−)-α-methyl[^3H]histamine (Amersham, TRK-1017, specific activity: 1.74 TBq/mmol, 2 nM) and a test drug were reacted at room temperature for 1 hour. After completion of the reaction, the reaction mixture was subjected to suction filtration through a 0.3% polyethyleneimine-treated glass filter (GF/C). The glass filter was washed five times with 50 mM Tris-HCl washing solution (pH 7.4) containing 0.1% BSA and 5 mM magnesium chloride. After washing, the glass filter was dried and a scintillator was added thereto, followed by measurement of radioactivity on the filter using a liquid scintillation counter.
# Binding of R(−)-α-methyl[^3H]histamine in the presence of 10 μM R(−)-α-methylhistamine was defined as non-specific binding, and the difference between total binding and non-specific binding of R(−)-α-methyl[^3H]histamine was defined as specific binding of R(−)-α-methyl[^3H]histamine. A fixed concentration (2 nM) of R(−)-α-methyl[^3H]histamine was reacted under the above conditions with each test drug at various concentrations to obtain an inhibition curve. The inhibition curve was used to determine the concentration (IC50) of each test drug required for 50% inhibition of R(−)-α-methyl[^3H]histamine binding.
# human H3 receptor [2] = molecular target: T1, human H3 receptor; assay: [35S]GTP-γ-S binding test; type: biochemical; details: human H3 receptor membrane preparation; 100 μM R(−)-α-methylhistamine; 0.2 nM [35S]GTP-γ-S; 30 μM GDP
# Protocol: A human H3 receptor membrane preparation (7.5 μg protein/100 μl), 30 μM GDP, 100 μM R(−)-α-methylhistamine and a test compound were reacted at room temperature for 30 minutes. After completion of the reaction, [^35S]GTP-γ-S (0.2 nM) was added and reacted for an additional 30 minutes. After completion of the reaction, the reaction mixture was subjected to suction filtration through a glass filter (GF/C). The glass filter was washed three times with 20 mM HEPES washing solution (pH 7.4) containing 100 mM sodium chloride and 1 mM magnesium chloride. After washing, the glass filter was dried and a scintillator was added thereto, followed by measurement of radioactivity on the filter using a liquid scintillation counter.
# Binding of [^35S]GTP-γ-S in the absence of R(−)-α-methylhistamine was defined as non-specific binding, and the difference between total binding in the presence of R(−)-α-methylhistamine and non-specific binding was defined as specific binding of [^35S]GTP-γ-S. Fixed concentrations of [^35S]GTP-γ-S (0.2 nM) and R(−)-α-methylhistamine (100 μM) were reacted under the above conditions with each test drug at various concentrations to obtain an inhibition curve. The inhibition curve was used to determine the concentration (IC50) of each test drug required for 50% inhibition of [^35S]GTP-γ-S binding.
# male SD rats = assay: Social recognition test; type: in vivo, rat; details: compared to the vehicle group
# Protocol: In this test, male SD rats were used. Adult rats were placed in a Perspex test box and acclimated for 30 minutes. Then, young rats were placed in the same test box, and the time taken for the adult rats to show exploratory behavior to the young rats during 5 minutes was measured (first exploratory behavior time). The exploratory behavior measured included sniffing, grooming, and closely following. After a 5 minute exploration, the adult and young rats were removed from the test box and returned to their respective home cages. After 90 minutes, the adult rats were placed again in the same test box as used in the first exploratory behavior test and acclimated for 30 minutes. Then, the same young rats as used in the first test were placed in the test box, and the time taken for the adult rats to show exploratory behavior to the young rats during 5 minutes was measured (second exploratory behavior time). The ratio of the second exploratory behavior time to the first exploratory behavior time (second/first exploratory behavior time ratio) was taken as an indicator of social recognition. The compound of the present invention was orally administered to the adult rats immediately after their first exploratory behavior. The compound of the present invention was dissolved in 0.03 N hydrochloric acid and tested at 0.1, 0.3 and 1 mg/kg.
# T1 sequence (Q9Y5N1 whole entry): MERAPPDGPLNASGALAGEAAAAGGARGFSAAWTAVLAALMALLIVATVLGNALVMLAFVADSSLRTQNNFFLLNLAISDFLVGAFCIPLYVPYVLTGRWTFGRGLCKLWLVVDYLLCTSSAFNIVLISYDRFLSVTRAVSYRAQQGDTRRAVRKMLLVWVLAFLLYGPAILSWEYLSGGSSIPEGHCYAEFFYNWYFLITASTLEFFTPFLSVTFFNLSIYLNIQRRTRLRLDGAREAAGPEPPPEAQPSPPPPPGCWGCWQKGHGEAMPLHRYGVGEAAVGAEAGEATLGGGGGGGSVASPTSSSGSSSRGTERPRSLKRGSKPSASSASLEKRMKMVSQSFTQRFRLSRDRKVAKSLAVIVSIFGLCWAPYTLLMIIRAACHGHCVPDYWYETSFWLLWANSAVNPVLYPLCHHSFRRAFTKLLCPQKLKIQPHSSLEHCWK
IC50 (human H3 receptor [1]),IC50 (human H3 receptor [2]),Compound,second/first exploratory behavior time ratio (male SD rats; 0.3 mg/kg orally to adult male SD rats immediately after first exploratory behavior),second/first exploratory behavior time ratio (male SD rats; 1 mg/kg orally to adult male SD rats immediately after first exploratory behavior)
7.1 nM,1.6 nM,"O=C(c1cnn(-c2ccc(OC3CCN(C4CCC4)CC3)cc2)c1)N1CCCC1 [Compound No. 14, 1-cyclobutyl-4-{4-[4-(pyrrolidin-1-ylcarbonyl)-1-pyrazol-1-yl]phenoxy}piperidine]",–,–
7.1 nM,1.2 nM,"O=C(c1ccn(-c2ccc(OC3CCN(C4CCC4)CC3)cc2)n1)N1CCCC1 [Compound No. 68, {1-[4-(1-cyclobutylpiperidin-4-yloxy)phenyl]-1H-pyrazol-3-yl}pyrrolidin-1-yl-methanone]",–,–
8.1 nM,–,"CC1CCCC1N1CCC(Oc2ccc(-n3cc(C(=O)N4CCCC4)cn3)cc2)CC1 (stereo not shown) [Compound No. 5, 1-(2-methylcyclopentyl)-4-{4-[4-(pyrrolidin-1-ylcarbonyl)-1H-pyrazol-1-yl]phenoxy}piperidine]",–,–
5.7 nM,1.1 nM,"O=C(NC1CCCC1)c1cnn(-c2ccc(OC3CCN(C4CCC4)CC3)cc2)c1 [compound 16, 1-{4-[(1-cyclobutylpiperidin-4-yl)oxy]phenyl}-N-cyclopentyl-1H-pyrazole-4-carboxamide]",–,–
6.2 nM,–,"O=C(NCC1CCCCC1)c1cnn(-c2ccc(OC3CCN(C4CCC4)CC3)cc2)c1 [compound 19, 1-{4-[(1-cyclobutylpiperidin-4-yl)oxy]phenyl}-N-(cyclohexylmethyl)-1H-pyrazole-4-carboxamide]",–,–
10.4 nM,2.6 nM,"O=C(c1cnn(-c2ccc(OC3CCN(C4CCCC4)CC3)cc2)c1)N1CCCC1 [Compound No. 1, 1-cyclopentyl-4-{4-[4-(pyrrolidin-1-ylcarbonyl)-1H-pyrazol-1-yl]phenoxy}piperidine]",significantly reduced,significantly reduced
14.7 nM,–,"O=C(NCC(F)(F)F)c1cnn(-c2ccc(OC3CCN(C4CCC4)CC3)cc2)c1 [compound 18, 1-{4-[(1-cyclobutylpiperidin-4-yl)oxy]phenyl}-N-(2,2,2-trifluoroethyl)-1H-pyrazole-4-carboxamide]",–,–
